# Measurements from US5475087A, “Antagonists of human granulocyte-macrophage colony stimulating factor derived from the carboxyl terminus” (Schering Corporation, priority 1994, dated 1995).
# How the values were obtained:
# [1] = test system: GM-CSF receptors on KG-1 cells; test: GM-CSF receptor binding assay on KG-1 cells; set-up: species or system human; conditions: 2700 sites/cell, read-out: Kd, low affinity site
# Procedure: GM-CSF is radioiodinated by the method of Bolton and Hunter (Bolton, A. E. & Hunter, W. M. (1973) Biochem. J. 133, 529-539) and purified by gel filtration on a Sephadex G-25 column (PD-10, Pharmacia). The resulting ^125 I-GM-CSF has a specific radioactivity of about 1-3×10^6μCi/μMole and a stoichiometry of 0.4-1.2 moles ^125 I per mole of GM-CSF.
# The samples are incubated at about 22° C. or 4° C. for 1 hour or 2 hours, respectively. Centrifugation for 21/2 minutes at 600×g yields a cell pellet which is washed twice with IMDM-10% FCS.
# To measure the displacement of ^125 I-GM-CSF from receptors by polyclonal antibodies, antisera or pre-immune sera are included in the binding assays. Antibodies that recognize GM-CSF are incubated for about 10 minutes with ^125 I-GM-CSF prior to initiating binding by the addition of KG-1 cells, AML-193 cells or placental membranes. The sheep polyclonal antibody 1418, which recognized the GM-CSF receptor, is pre-incubated for about 10 minutes with KG-1 cells, AML-193 cells or placental membranes. Binding is initiated by ^125 I-GM-CSF addition.
# GM-CSF (an article of commerce available, e.g., from Genzyme Corporation, Boston, Mass.) was radioiodinated by the method of Bolton and Hunter [Bolton, A. E. & Hunter, W. M., Biochem., J., 133: 529-539 (1973)] and purified by gel filtration on a Sephadex G-25 column (PD-10, Pharmacia). […]
# [2] = target: GM-CSF receptors on placental membranes; test: GM-CSF receptor binding assay on placental membranes
# Procedure: Placental membranes are prepared by homogenization, centrifugation to remove the 100×g fraction, and thorough washing of the 27,300×g fraction. Protease inhibitors may be present in the homogenization and wash buffers. […] Following incubation for about 1 hour at about 22° C., samples are centrifuged for about 21/2 minutes at 800×g and the placental membrane pellet washed twice with IMDM-10% FCS. Cell pellets are counted on a gamma counter. Saturating concentrations of unlabeled GM-CSF are added to control assays to measure non-specific binding. To measure the displacement of ^125 I-GM-CSF from receptors by polyclonal antibodies, antisera or pre-immune sera are included in the binding assays. Antibodies that recognize GM-CSF are incubated for about 10 minutes with ^125 I-GM-CSF prior to initiating binding by the addition of KG-1 cells, AML-193 cells or placental membranes. The sheep polyclonal antibody 1418, which recognized the GM-CSF receptor, is pre-incubated for about 10 minutes with KG-1 cells, AML-193 cells or placental membranes. Binding is initiated by ^125 I-GM-CSF addition. Placental membranes were prepared by homogenization, centrifugation to remove the 100×g fraction, and thorough washing of the 27,300×g fraction. Protease inhibitors were present in the homogenization and wash buffers. […] Cell pellets were counted on a gamma counter. […]
# [3] = test system: GM-CSF stimulation of KG-1 cell proliferation; test: KG-1 cell proliferation assay (MTT); format: cell-based, human
# Procedure: The assay for GM-CSF is based on stimulation of proliferation of suitable cells such as KG-1 cells, a cell line established from the bone marrow of a patient with acute myelogenous leukemia. AML-193 cells can also be used in this assay. AML-193 are cells as described in B. Lange et al., Blood, 70: 192-199 (1987). Cells are incubated in microtiter plate wells with dilutions of GM-CSF for about 6 days and then incubated for about an additional 4 hours with the tetrazolium salt MTT (3-(4,5-dimethylthiozol-2-yl)-2,5-diphenyltetrazolium bromide). MTT is converted by mitochondrial dehydrogenase enzymes to a colored reaction product, formazan (Mosmann, I. (1983) J. Immunological Methods 65, 55-63). The formazan is extracted with acidified isopropanol and measured spectrophotometrically. The observed optical density is directly proportional to the log2 cell concentration. The results are expressed as ΔO.D., where ΔO.D. is the optical density of the sample minus the optical density of a baseline control lacking GM-CSF. […] The formazan is extracted with acidified isopropanol and measured spectrophotometrically. […] The results are expressed as ΔO.D., where ΔO.D. is the optical density of the sample minus the optical density of a baseline control lacking GM-CSF. […]
substance,measurement,setting,value
"^125 I-GM-CSF: GM-CSF radioiodinated by the method of Bolton and Hunter, purified by gel filtration",Kd,[1],0.73 nM
same,Kd,[2],0.86 nM
same,biological activity compared with unlabeled GM-CSF,[3],same biological activity as unlabeled GM-CSF
